The test system of one series is Plasmodium falciparum. In words: Antimalarial activity against Plasmodium falciparum 3D7. In kind it is functional, organism-based.
Series [1] can be described thus: Partition coefficient, log P of the compound. Conditions: octanol/water. In kind it is physicochemical.

Broadly, the IC50 is the midpoint of a concentration-inhibition curve. For orientation: logP means the decadic logarithm of the partition coefficient of the neutral form, usually between octanol and water. A high value points to higher lipophilicity.

In turn, `C=C1COOC2(CCC(Cc3ccc(C(=O)OC)cc3)CC2)OOC1` showed an IC50 in the series with Plasmodium falciparum of 116 nM. In series [1], this compound showed a logP of 4.05.

Compound `CCOC(=O)CC1CCC2(CC1)OOCCCOO2` gave an IC50 with Plasmodium falciparum of 118 nM. Moreover, the logP in series [1] is 2.2.

Take `O=C(CC1CCC2(CC1)OOCCCOO2)N1CCOCC1`: half-maximal inhibition in the series with Plasmodium falciparum (IC50) required 689 nM. The compound further had a logP in series [1] of 1.16.

In the series with Plasmodium falciparum, `C=C1COOC2(CCC(Cc3ccc(C(F)(F)F)cc3)CC2)OOC1` came in with an IC50 of 42.8 nM. Also, the logP in series [1] was found to be 4.95.

Regarding `Fc1ccc(CC2CCC3(CC2)OOCCCOO3)cc1`, the half-inhibitory concentration (IC50) in the series on Plasmodium falciparum was 68.2 nM. This compound also showed a logP in series [1] of 4.01.

Regarding `FC(F)(F)c1ccc(CC2CCC3(CC2)OOCCCOO3)cc1`, 52.4 nM corresponded to half-maximal inhibition in the series with Plasmodium falciparum (IC50). The compound further gave a logP in series [1] of 4.79.

With `N#Cc1ccc(CC2CCC3(CC2)OOCCCOO3)cc1`, 99.7 nM corresponded to half-maximal inhibition with Plasmodium falciparum (IC50). In addition, the logP in series [1] was 3.46.

With `c1ccc(CC2CCC3(CC2)OOCCCOO3)cc1`, the concentration for half-maximal inhibition (IC50) with Plasmodium falciparum was 51.9 nM. Further, the logP in series [1] came to 3.93.

Consider `CS(=O)(=O)c1ccc(CC2CCC3(CC2)OOCCCOO3)cc1`, for which the logP in series [1] stood at 2.65.

For the compound `C=C1COOC2(CCC(Cc3ccc(F)cc3)CC2)OOC1`, in the series with Plasmodium falciparum, the IC50 turned out to be 43.4 nM. The compound further gave a logP in series [1] of 4.2.

On to `COC(=O)c1ccc(CC2CCC3(CC2)OOCCCOO3)cc1`, for which 93.5 nM corresponded to half-maximal inhibition in the series with Plasmodium falciparum (IC50). Besides, in series [1], the logP was 3.75.

For `CO[C@H]1O[C@@H]2O[C@@]3(C)CC[C@H]4[C@H](C)CC[C@@H]([C@H]1C)[C@@]24OO3` [ARTEMETHER], inhibition in the series with Plasmodium falciparum was half-maximal at 3.2 nM (IC50).

For `C[C@@H]1CC[C@H]2[C@@H](C)C(=O)O[C@@H]3O[C@@]4(C)CC[C@@H]1[C@]32OO4` [ARTEMISININ], half-maximal inhibition in the series on Plasmodium falciparum (IC50) required 9.2 nM.

These data come from ChEMBL document CHEMBL1141504, “An efficient route into synthetically challenging bridged achiral 1,2,4,5-tetraoxanes with antimalarial activity” (Bioorg Med Chem Lett, 2008).
